Test results: publication PMC6035176, “Chemo-manipulation of tumor blood vessels by a metal-based anticancer complex enhances antitumor therapy” (Scientific Reports, 2018)
pIC50: −log10 of the molar value.

Molecular target: T1, Poly(ADP-Ribose) Polymerase type 1 (PARP-1) (Homo sapiens, UniProt P09874)
T1 construct: gene PARP1
Assay: in vitro colorimetric PARP-1 activity assay
Assay type: biochemical

T1 sequence (P09874 2-1014): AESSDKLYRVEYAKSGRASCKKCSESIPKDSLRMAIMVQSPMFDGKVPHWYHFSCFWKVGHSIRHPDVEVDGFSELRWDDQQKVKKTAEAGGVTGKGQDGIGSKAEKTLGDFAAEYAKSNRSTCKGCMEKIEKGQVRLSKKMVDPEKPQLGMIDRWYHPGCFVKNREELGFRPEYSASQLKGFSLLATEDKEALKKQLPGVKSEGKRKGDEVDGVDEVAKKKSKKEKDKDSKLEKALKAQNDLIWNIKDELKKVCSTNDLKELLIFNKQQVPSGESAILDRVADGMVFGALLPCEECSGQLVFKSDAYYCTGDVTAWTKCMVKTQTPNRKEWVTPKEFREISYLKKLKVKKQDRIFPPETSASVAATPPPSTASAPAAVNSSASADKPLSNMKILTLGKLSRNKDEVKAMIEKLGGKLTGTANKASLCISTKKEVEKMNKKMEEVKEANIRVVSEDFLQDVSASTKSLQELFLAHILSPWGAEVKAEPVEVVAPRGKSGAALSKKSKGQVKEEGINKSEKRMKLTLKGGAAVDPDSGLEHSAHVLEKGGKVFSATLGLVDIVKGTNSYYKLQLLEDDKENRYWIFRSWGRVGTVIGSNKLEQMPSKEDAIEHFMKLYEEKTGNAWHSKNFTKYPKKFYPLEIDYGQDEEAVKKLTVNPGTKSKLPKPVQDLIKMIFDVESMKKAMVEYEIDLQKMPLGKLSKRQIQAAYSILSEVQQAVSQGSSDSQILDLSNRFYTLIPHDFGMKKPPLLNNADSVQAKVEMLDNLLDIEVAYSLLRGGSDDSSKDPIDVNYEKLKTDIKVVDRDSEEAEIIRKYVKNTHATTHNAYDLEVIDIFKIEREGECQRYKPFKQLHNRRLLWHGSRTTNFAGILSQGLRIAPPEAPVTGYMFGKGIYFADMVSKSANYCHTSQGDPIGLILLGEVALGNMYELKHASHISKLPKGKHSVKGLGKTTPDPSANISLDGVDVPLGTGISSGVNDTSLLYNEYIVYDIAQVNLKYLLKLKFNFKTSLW

- pIC50: 3.40
Substance: RAPTA-T
